Data taken from patent US12497362B2, “Cyclopentapyrrole orexin receptor agonists” (Merck Sharp & Dohme LLC, priority 2020, dated 2025).

Molecular target: T1, human OX2R (Homo sapiens, UniProt O43614)
T1 construct: expressed in transfected cells; host or cells: CHO (Chinese hamster ovary) cells, grown under G418 selection
T1 sequence (O43614 1-444): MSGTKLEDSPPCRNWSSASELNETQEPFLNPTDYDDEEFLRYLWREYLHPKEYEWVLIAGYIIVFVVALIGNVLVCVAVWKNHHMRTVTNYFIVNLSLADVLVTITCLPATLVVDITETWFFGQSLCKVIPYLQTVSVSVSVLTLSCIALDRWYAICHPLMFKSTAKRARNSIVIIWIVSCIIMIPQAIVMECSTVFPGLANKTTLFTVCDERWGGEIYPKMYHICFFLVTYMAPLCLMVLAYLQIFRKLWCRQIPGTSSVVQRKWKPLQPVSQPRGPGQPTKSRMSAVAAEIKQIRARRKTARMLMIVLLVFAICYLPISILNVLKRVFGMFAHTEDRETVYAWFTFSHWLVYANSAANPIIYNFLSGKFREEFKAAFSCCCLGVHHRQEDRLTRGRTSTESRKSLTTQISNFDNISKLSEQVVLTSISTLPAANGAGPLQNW
Experiment: IPOne (IP-1 accumulation) orexin receptor agonist assay in CHO cells expressing human OX2R
Type: cell-based
Details: hOX2R IP-One assay, percent of mean max effect of a reference compound at 1 uM with 100% activity established by comparison to Orexin A
Description: The utility of the compounds in accordance with the present invention as orexin receptor OX1R and/or OX2R agonists may be readily determined without undue experimentation by methodology well known in the art. Both the OX1R and/or OX2R G-coupled protein receptors (GPCRs) couple through the Gαq signaling pathway, which ultimately promotes calcium mobilization via inositol triphosphate (IP3) production. The half-life of IP-3 is relatively short, being rapidly metabolized to inositol monophosphate (IP-1), which can be readily detected using a commercially available assay kit (IP-One; Cisbio; cat #621PAPEC) coupled with a cell line expressing the target receptor(s) of interest. The utility of the compounds in accordance with the present invention as orexin receptor OX1R and/or OX2R agonists may be determined utilizing this assay.
In a typical experiment, the OX1 and OX2 receptor agonist activity is determined in accordance with the following general experimental method. Chinese hamster ovary (CHO) cells expressing human OX1R and/or the human OX2R were grown in Iscove's modified DMEM containing glutaMAX™, 1% G418, 100 U/mL penicillin, 100 μg/mL streptomycin and 10% heat-inactivated qualified fetal bovine serum (FBS). The OX2R cells were seeded at 10,000 cells/well/50 μL and the OX1R cells were seeded at 20,000 cells/well/50 μL into 384-well white tissue culture plates (Greiner; cat #781080). All cell/media reagents were from GIBCO-Invitrogen Corp. The seeded cell plate(s) were incubated at 37° C. with 5% CO2 and 85% humidity for 20-24 hours. On the day of the assay, assay-ready compound plates were prepared using an acoustic liquid handler (ECHO; Labcyte), which dispensed sufficient volume of test compound stock (10 mM in DMSO) or 100% DMSO to prepare 10 point, ½-log dilutions in a final volume of 202.5 nL/well in all test wells of a 384-well diamond plate (Labcyte). Following completion of assay-ready plates, importantly, the next three steps were performed with minimal delay: 1) 20 μl of 1× stimulation buffer was added to the compound plate using a Multidrop Combi (small cassette, Thermo Fisher Scientific cat #24073290); 2) culture medium was removed from the cell plate using the Bluewasher plate washer (gentle spin; BlueCatBio); 3) 14 μl of compound/stimulation buffer mixture was added to the cell plate using a Bravo liquid handler (Agilent) prior to incubating cell plates at 37° C. with 5% CO2 and 85% humidity for 1 or 2 hours (OX1R and OX2R, respectively). During this incubation, IP-one detection reagents were prepared (38:1:1 lysis buffer:D2:AB-cryptate reagents). Six μL of mixed detection reagents were added to the cell plate using a Multidrop Combi (small cassette, Thermo Fisher Scientific cat #24073290) and incubated 60 minutes at room temperature in the dark. Fluorescence signal was detected using an Envision plate reader (Perkin Elmer) [LANCE/DELFIA Dual Enh (Em: APC 665; Ex: Cy5 620)].
For each compound, data were fit to a four parameter logistic fit (ActivityBase software) and the EC50 was reported as the inflection point of the resulting curve. Percent effect for each test compound was determined as the percentage of sample raw value/mean max effect, where the mean max effect was derived from the mean raw value of 32 control wells per assay plate (using Orexin A (cat #003-30) at 1 μM for human OX1R and a reference compound at 1 uM with 100% activity previously established by comparison to Orexin A for human OX2R). The intrinsic orexin receptor agonist activity of a compound which may be used in the present invention may be determined by these assays.

Row | SMILES | Emax [%]
1 | COC(=O)N1[C@@H]2CCC[C@@H]2[C@H](NS(C)(=O)=O)[C@@H]1CO[C@H]1CC[C@@H](c2cccc(F)c2)CC1 [Example 1, methyl (2R,3S,3aS,6aR)-2-((((1s,4S)-4-(3-fluorophenyl)cyclohexyl)oxy)methyl)-3-(methylsulfonamido)hexahydrocyclopenta[b]pyrrole-1(2H)-carboxylate] | 101
2 | COC(=O)N1[C@@H]2CCC[C@@H]2[C@H](NS(=O)(=O)N(C)C)[C@@H]1CO[C@H]1CC[C@@H](c2cccc(F)c2)CC1 [Example 2, methyl (2R,3S,3aS,6aR)-3-((N,N-dimethylsulfamoyl)amino)-2-((((1s,4S)-4-(3-fluorophenyl)cyclohexyl)oxy)methyl)hexahydrocyclopenta[b]pyrrole-1(2H)-carboxylate] | 101
3 | CNS(=O)(=O)N[C@H]1[C@H]2CCC[C@H]2N(C(=O)OC)[C@H]1CO[C@H]1CC[C@@H](c2cccc(F)c2)CC1 [Example 3, methyl (2R,3S,3aS,6aR)-2-((((1s,4S)-4-(3-fluorophenyl)cyclohexyl)oxy)methyl)-3-((N-methylsulfamoyl)amino)hexahydrocyclopenta[b]pyrrole-1(2H)-carboxylate] | 98
4 | COC(=O)N1[C@@H]2COC[C@@H]2[C@H](NS(C)(=O)=O)[C@@H]1CO[C@H]1CC[C@@H](c2cccc(F)c2)CC1 [Example 4, methyl (2R,3S,3aS,6aS)-2-((((1s,4S)-4-(3-fluorophenyl)cyclohexyl)oxy)methyl)-3-(methylsulfonamido)hexahydro-1H-furo[3,4-b]pyrrole-1-carboxylate] | 101
5 | COC(=O)N1[C@@H]2COC[C@@H]2[C@H](NS(=O)(=O)N(C)C)[C@@H]1CO[C@H]1CC[C@@H](c2cccc(F)c2)CC1 [Example 5, methyl (2R,3S,3aS,6aS)-3-((N,N-dimethylsulfamoyl)amino)-2-((((1s,4S)-4-(3-fluorophenyl)cyclohexyl)oxy)methyl)hexahydro-1H-furo[3,4-b]pyrrole-1-carboxylate] | 101
6 | COC(=O)N1[C@@H]2COC[C@@H]2[C@H](NS(=O)(=O)CF)[C@@H]1CO[C@H]1CC[C@@H](c2cccc(F)c2)CC1 [Example 6, methyl (2R,3S,3aS,6aS)-3-((fluoromethyl)sulfonamido)-2-((((1s,4S)-4-(3-fluorophenyl)-cyclohexyl)oxy)methyl)hexahydro-1H-furo[3,4-b]pyrrole-1-carboxylate] | 102
7 | COC(=O)N1[C@@H]2CCC[C@@H]2[C@H](NS(C)(=O)=O)[C@@H]1CO[C@H]1CC[C@@H](c2ccccc2)CC1 [Example 7, Methyl (2R,3S,3aS,6aR)-3-(methylsulfonamido)-2-((((1s,4S)-4-phenylcyclohexyl)oxy)-methyl)hexahydrocyclopenta[b]pyrrole-1(2H)-carboxylate] | 101
8 | COC(=O)N1[C@@H]2CCC[C@@H]2[C@H](NS(=O)(=O)N(C)C)[C@@H]1CO[C@H]1CC[C@@H](c2ccccc2)CC1 [Example 8, Methyl (2R,3S,3aS,6aR)-3-((N,N-dimethylsulfamoyl)amino)-2-((((1s,4S)-4-phenyl-cyclohexyl)oxy)methyl)hexahydrocyclopenta[b]pyrrole-1(2H)-carboxylate] | 98
9 | COC(=O)N1[C@@H]2CCC[C@@H]2[C@H](NS(C)(=O)=O)[C@@H]1COC1CCN(c2ncc(F)cn2)CC1 [Example 9, Methyl (2R,3S,3aS,6aR)-2-(((1-(5-fluoropyrimidin-2-yl)piperidin-4-yl)oxy)methyl)-3-(methylsulfonamido)hexahydrocyclopenta[b]pyrrole-1(2H)-carboxylate] | 97
10 | CC(C)OC(=O)N1[C@@H]2CCC[C@@H]2[C@H](NS(C)(=O)=O)[C@@H]1COC1CCN(c2ncc(F)cn2)CC1 [Example 10, Isopropyl (2R,3S,3aS,6aR)-2-(((1-(5-fluoropyrimidin-2-yl)piperidin-4-yl)oxy)methyl)-3-(methylsulfonamido)hexahydrocyclopenta[b]pyrrole-1(2H)-carboxylate] | 103
11 | COC(=O)N1[C@@H]2CC[C@@H]2[C@H](NS(C)(=O)=O)[C@@H]1CO[C@H]1CC[C@@H](c2ccccc2)CC1 [Example 11, methyl (1R,3R,4S,5S)-4-(methylsulfonamido)-3-((((1s,4S)-4-phenylcyclohexyl)oxy)methyl)-2-azabicyclo[3.2.0]heptane-2-carboxylate] | 103
